These results are taken from a melting point compilation (Tetko et al.; mined from patent text by program, amines drawn as free bases though some values may be those of a salt).

The structures appear in SMILES notation. Bounds are passed on as bounds.

The melting point is the temperature of the solid-liquid transition.

Molecule `C#CCNc1cc(F)c([N+](=O)[O-])cc1[N+](=O)[O-]` yielded a melting point of 113 to 115 °C.

The molecule `NCCc1c(C(=O)O)[nH]c2ccc(Br)cc12` came in with a melting point of 248 to 249 °C.

As to `CC(=O)Oc1c(C)c(C)c(O)c(C(C)=NOCCOc2ccc(CC3SC(=O)NC3=O)cc2)c1C` (stereo unspecified), the melting point fell in the range of 60 to 75 °C.

`COc1ccc(COCC(O)Cc2cccnc2)cc1` (stereo unspecified) showed a melting point of 55 to 56 °C.

The molecule `O=[N+]([O-])c1cccc2c(Cl)c(Cl)cnc12` registered a melting point of 123 °C.

With `CCOC(=O)C1Cc2c([nH]c3ccccc23)CN1C(=S)SCc1cccs1` (stereo unspecified), the melting point lay within 205 to 207 °C.

Take `O=C(Cl)c1cc([N+](=O)[O-])ccc1F`: the melting point fell in the range of 59 to 60 °C.

Take `CC1Cc2cc3c(cc2C(c2ccc([N+](=O)[O-])cc2)=NN1c1ncon1)OCO3` (stereo unspecified): the melting point lay in the range of 190 to 196 °C.

The molecule `O=C(c1csc2ccccc12)C1CCN(CCc2ccccc2)CC1` gave a melting point of 110 to 112 °C.

In turn, `O=C1c2ccccc2C(=O)N1CC(O)c1cnc(-c2ccccc2)nc1-c1ccccc1` (stereo unspecified) gave a melting point of 149 to 159 °C.

For the molecule `CC(C)OC(=O)c1cc(-n2c(=O)c3c(n(C)c2=O)CCC3)ccc1Cl`, the melting point is 148 to 150 °C.

`COc1ccc2c(c1)c(O)c(C#N)n2-c1ccccc1` came in with a melting point of 182 °C.

For `CC(C)CN(CC(C)C)c1ccc(NC(=O)N(C[C@H]2CC[C@H](CN(C(=O)Nc3ccc(N(CC(C)C)CC(C)C)cc3)C3CCCCC3)CC2)C2CCCCC2)cc1`, the melting point lay within 140 to 142 °C.

`O=c1cc(O)c2cccnc2n1-c1ccccc1` registered a melting point of 311 to 313 °C.

The molecule `CCOC(=O)NNc1ccnc2c(NC(=O)c3c(Cl)cccc3Cl)cccc12` showed a melting point of 151 to 155 °C.

With `COC(=O)[C@]1(C)Oc2ccccc2NC1=O`, the melting point was in the range of 153 to 157 °C.

Turning to `COCCOC/C(=C\S(=O)(=O)c1ccccc1)C(=O)OC(C)(C)C`, the melting point fell in the range of 46 to 48 °C.

Turning to `CCn1c(O)cc(C)c(C#N)c1=O`, the melting point is 230 to 237 °C.

On to `Cc1nc(-c2ccc(OCC(C)(C)C)c([N+](=O)[O-])c2)sc1C(=O)O`, for which the melting point fell in the range of 242 to 245 °C.

For the molecule `O=C(O)CCCCc1c([N+](=O)[O-])cc(O)c(O)c1[N+](=O)[O-]`, the melting point lay in the range of 135 to 139 °C.

In turn, `CC(C)(OCc1nn(Cc2ccccc2)c2ccc(Cl)cc12)C(=O)O` had a melting point of 145 to 147 °C.

Regarding `O=[N+]([O-])c1c(C2C=CCCC2)ccnc1Cl` (stereo unspecified), the melting point is 54.5 to 55.4 °C.

Turning to `O=c1c(NCCCN(Cc2cccs2)c2ccccn2)c(NCc2ccncc2)c1=O`, the melting point was 189 to 192 °C.

The molecule `CCOC(=O)c1nc2ccccc2nc1CC` had a melting point of 53 to 54 °C.

Regarding `O=c1cc(N2CCOCC2)oc2ccccc12`, the melting point was found to be 143 °C.

In turn, `COc1ccc(C=C2SC(=S)N(CC(=O)O)C2=O)cc1-c1cc2c(cc1C)C(C)(C)CCC2(C)C` came in with a melting point of 242 to 244 °C.

Consider `NS(=O)(=O)c1cc(C(=O)CBr)ccc1Cl`, for which the melting point was 169 °C.

As to `O=C1OCCC12Sc1cc(Cl)ccc1C2=O` (stereo unspecified), the melting point lay within 157 to 158 °C.

In turn, `Cc1oc2ccccc2c(=O)c1O` displayed a melting point of 179 to 180 °C.

With `COc1ccc2c3c(c(=O)oc2c1)CN(CCN1CC2CCCC(C2)C1)CC3`, the melting point is 102 to 103 °C.

Consider `O=c1cc(-c2cccc(OP(=O)(O)O)c2)[nH]c2ccc(N3CCCC3)cc12`, for which the melting point was above 300 °C.

For `CCCCc1c(/C=C/C(=O)Oc2ccc([N+](=O)[O-])cc2)ccc2ccc(OC)cc12`, the melting point lay in the range of 114 to 115 °C.

`O=C1c2ccccc2C(=O)N1CCCCOc1ccc(-c2ccncn2)cc1`: the melting point lay in the range of 100 to 102 °C.

For the molecule `COc1ccc(-c2[nH]cnc2-c2cc(OC)c(Br)c(OC)c2)cc1O`, the melting point lay in the range of 185 to 187 °C.

For the molecule `COc1ccc(NC(=O)c2c[nH]c3c2C(=O)CC(C)(C)C3)c(F)c1`, the melting point was in the range of 203 to 205 °C.

Take `CC(C)(C)c1cc(C=Cc2n[nH]c(=O)[nH]2)cc(C(C)(C)C)c1O`: the melting point lay in the range of 280 to 284 °C.
